Measurements: patent US20090148426A1, “COMPOSITION FOR LIFE EXTENSION AND METHOD OF EXTENDING THE LIFE” (priority 2005, published 2009)

Key:
[1] = test system: senescence-accelerated model mice (SAMP8); assay: Life extending effect for a senescence-accelerated model mouse (survival rate); assay type: in vivo; conditions: for Survival Rate (%): SAMP8 male mice, feedstuff containing 0.4% (about 300 to 500 mg/kg/day), 13th month after start of test, Kaplan-Meier, n=8 to 10; for Extension of a life span (in words): SAMP8 mice, ingestion with feedstuff containing 0.4%
Source text: In order to evaluate these life extension effects, a special senescence-accelerated model mouse (for example, SAMP8), which has a shorter lifetime than a common mouse, may be used as a model for evaluations in vivo, for example. […] This mouse is very useful model for evaluating effects over a life span. The aging states shown in this mouse extremely resembles the aging states of humans, and is also useful to evaluate the health condition of humans in a senectitude.
(§1) Three groups were set as follows. One is a group, to which feedstuff (CE-2, a product of CLEA Japan, Inc.) containing 0.4% of reduced coenzyme Q10 produced in Production Example 1 (containing about 1% by weight of oxidized coenzyme Q10) was given. Another group is a group, to which feedstuff (CE-2, a product of CLEA Japan, Inc.) containing 0.4% of commercially-available oxidized coenzyme Q10 (100% oxidized coenzyme Q10, a product of Kaneka Corporation) was given. The rest is a control group, to which only basic feedstuff (CE-2, a product of CLEA Japan, Inc.) was given. Each group consisted of 8 to 10 senescence-accelerated model mice (SAMP8, 3-week old, male). Each group was allowed free access to the feedstuff. During the test period, measurements of motor activities and recording of the number of dead mice were periodically performed. The dose of reduced and oxidized coenzyme Q10 as estimated from the feed consumption and animal body weight corresponded to about 300 to 500 mg/kg/day.
(§2) Results are illustrated in Tables 1 and 2. Table 1 illustrates the survival rates in the control group, the reduced coenzyme Q10-ingested group, and the oxidized coenzyme Q10-ingested group at the 13th month after the start of the test. Each data consists of n=8 to 10. The survival rate was assayed by the Kaplan-Meier method. The symbol “*” expresses that there is a significant difference relative to the control group at the degree of risk of 5%. Table 2 illustrates averages of motor activities (measuring apparatus: SUPERMEX, a product of Muromachi machinery) over a period from 16 o'clock to 9 o'clock in the morning of next day, and the relative proportions to the control group, estimated by assuming the level of the control group as 100. The data illustrated in Table 2 are values for each of the control group, the reduced coenzyme Q10-ingested group, and the oxidized coenzyme Q10-ingested group at the 11th month after the start of the test. Each data consist of n=4 to 7, and significant difference was tested by t-test.

[2] = test system: senescence-accelerated model mice (SAMP8); assay: Motor activities of senescence-accelerated model mice (SUPERMEX); assay type: in vivo, mouse; conditions: for Motor activities (Count) / Motor activities, relative proportion to the control group (control = 100): feedstuff containing 0.4%, 11th month after start of test; for Motor activities (Count): average from 16 o'clock to 9 o'clock next morning, n=4 to 7; for Motor activities, relative proportion to the control group (control = 100): control group level taken as 100; for Inhibition of deterioration of the motor activity (in words): ingestion with feedstuff containing 0.4%
Source text: as §1, §2

[3] = test system: rats; conditions: rats bred with unsaturated fatty acid-enriched feed; cited from earlier work
[4] = test system: mice; conditions: cited from earlier work
[5] = test system: rats; conditions: every day over 52 weeks at 1,200 mg/kg/day; cited from earlier work

Compound: COc1c(O)c(C)c(C/C=C(\C)CC/C=C(\C)CC/C=C(\C)CC/C=C(\C)CC/C=C(\C)CC/C=C(\C)CC/C=C(\C)CC/C=C(\C)CC/C=C(\C)CCC=C(C)C)c(O)c1OC [Reduced coenzyme Q10, reduced coenzyme Q10]
- Survival Rate (%) [1]: 75%
- Extension of a life span (in words) [1]: remarkable extension of a life span
- Motor activities (Count) [2]: 17520 Count
- Motor activities, relative proportion to the control group (control = 100) [2]: (163)
- Inhibition of deterioration of the motor activity (in words) [2]: inhibition of deterioration of the motor activity

Compound: ubiquinone
- Effect on life span of rats [3]: extended the life span of the rat
- Effect on life span of mice [4]: did not affect the life span of mice

Compound: COC1=C(OC)C(=O)C(C/C=C(\C)CC/C=C(\C)CC/C=C(\C)CC/C=C(\C)CC/C=C(\C)CC/C=C(\C)CC/C=C(\C)CC/C=C(\C)CC/C=C(\C)CCC=C(C)C)=C(C)C1=O [Oxidized coenzyme Q10, oxidized coenzyme Q10]
- Survival Rate (%) [1]: 40%
- Extension of a life span (in words) [1]: slightly improved
- Motor activities (Count) [2]: 12754 Count
- Motor activities, relative proportion to the control group (control = 100) [2]: (119)
- Inhibition of deterioration of the motor activity (in words) [2]: slightly improved

Compound: COC1=C(OC)C(=O)C(C/C=C(\C)CC/C=C(\C)CC/C=C(\C)CC/C=C(\C)CC/C=C(\C)CC/C=C(\C)CC/C=C(\C)CC/C=C(\C)CC/C=C(\C)CCC=C(C)C)=C(C)C1=O [coenzyme Q10]
- Toxic effect in chronic toxicity test [5]: no toxic effect was observed
